Common to all, as to test: inhibition of tumour cell growth, NCI panel, 48 h
For test [1], the system named is 786-0 renal.
For test [2], the system named is MALME-3M melanoma.
The subject of test [3] is MDA-MB-231 breast.
Test [4] relates to SF-539 CNS.
The test system of test [5] is SNB-19 CNS.
For test [6], the system named is OVCAR-3 ovarian.
In test [7] the test system is DU-145 prostate.
Test [8] has as its system HS 578T breast.
The subject of test [9] is MDA-N.
For test [10], the system named is HT29 colon.
Test [11] relates to RXF 393 renal.
The subject of test [12] is SK-MEL-28 melanoma.
In test [13] the test system is CCRF-CEM leukemia.
Test [14] deals with UO-31 renal.
For test [15], the system named is OVCAR-8 ovarian.
For test [16], the system named is TK-10 renal.
In test [17] the test system is SK-MEL-5 melanoma.
Test [18] concerns K-562 leukemia.
For test [19], the system named is OVCAR-5 ovarian.
Test [20] concerns BT-549 breast.

16 compounds from PubChem BioAssay (NCI) can be followed below.

SMILES strings stand for the structures.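 48-hour exposure; five concentrations; linearly interpolated endpoints. TGI is the concentration that stops growth completely.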

For the compound `c1cc(C2=NCCO2)c2ccsc2c1`, the TGI in test [1], in test [2], in test [3], in test [4], in test [5] and in [6] was over 100 µM in each case. In addition, the TGI in test [7] was over 100 µM; in test [8], 49.8 µM; in test [9] it was over 100 µM; in [10], over 100 µM; in test [11], over 100 µM; in [12], over 100 µM. In addition, the TGI in [13], in [14], in test [15], in [16], in test [17] and in test [18] was over 100 µM in each case. The same compound showed a TGI in test [19] of over 100 µM.
For `COc1ccc(C(=O)c2nc3ccccc3nc2N2CCN(c3ccccc3)CC2)cc1OC`, the TGI in test [1], in test [2], in test [4], in [5], in test [6] and in test [7] was over 100 µM each time. Further, the TGI in [8], in test [9], in test [10], in test [11], in [12] and in test [13] was over 100 µM throughout. In addition, the TGI in [14], in [15], in [16], in test [17], in [18] and in test [19] was over 100 µM throughout.
As for `N#Cc1sc2c(c1OC(=O)c1ccc(Cl)cc1Cl)c(=O)n(-c1ccccc1)c(=S)n2-c1ccccc1`, the TGI in [1] was 77.3 µM; in test [3], 75.1 µM; in test [4] it was 39.2 µM; in [5] it was 60.6 µM; in test [6], 76.3 µM; in test [7], over 100 µM. The TGI in test [8] was 89.6 µM; in test [10], 55 µM; in test [11], 42 µM; in test [12] it was over 100 µM; in [13], 26.7 µM; in test [14] it was 0.424 µM. Further, the TGI in [15] was over 100 µM; in test [16] it was 92.5 µM; in test [17], 34.6 µM; in test [18], 68 µM; in test [19], over 100 µM.
With `COc1cc(NC(C)=O)ccc1C(=O)N/N=C/c1ccco1`, the TGI in test [1], in test [2], in test [4], in [5], in test [20] and in test [6] was over 100 µM each time. Also, the TGI in test [7], in test [8], in test [9], in [10], in test [11] and in test [12] was over 100 µM in each case. Moreover, the TGI in [13], in test [14], in test [15], in [17], in test [18] and in test [19] was over 100 µM throughout.
For `CCOC(=O)/C(=C\c1cn(C(C)=O)c2ccccc12)P(C)(=O)OCC` (stereo not given), the TGI in test [1] is over 100 µM; in test [2], over 100 µM; in test [3], 81.7 µM; in test [4], 45.1 µM; in [5], over 100 µM; in [20], 61.3 µM. Also, the TGI in test [6], in test [7], in [9], in test [10], in test [12] and in [13] was over 100 µM throughout. Further, the TGI in test [14], in [15], in [17], in test [18] and in test [19] was over 100 µM in each case.
In the case of `CN(C)c1ccc(C2CC(=O)CC(c3ccc(N(C)C)cc3)C23C(=O)NC(=S)NC3=O)cc1` (stereo not given), the TGI in test [1], in [2], in test [3], in test [4], in test [5] and in [6] was over 100 µM each time. Besides, the TGI in test [7], in [8], in [9], in [10], in [11] and in test [12] was over 100 µM throughout. The TGI in test [13], in [14], in [16], in [17], in test [18] and in test [19] was over 100 µM each time.
`COC(=O)CCC(=O)c1ccc2c(c1)CC1(C2)Cc2ccc(C(=O)CCC(=O)OC)cc2C1`: the TGI in [1], in test [2], in [3], in test [4], in [6] and in [8] was over 100 µM in each case. Further, the TGI in [9], in [10], in test [11], in [13], in test [14] and in [15] was over 100 µM each time. For the same compound, the TGI is over 100 µM in test [16], 61.5 µM in test [17], over 100 µM in test [18] and over 100 µM in test [19].
As for `Cc1cc(C#N)c(Nc2ccc(F)cc2[N+](=O)[O-])s1`, the TGI is over 100 µM in test [1]; over 100 µM in test [2]; 68.8 µM in test [3]; over 100 µM in [4]; over 100 µM in test [5]; over 100 µM in [20]. Moreover, the TGI in test [6], in test [7], in [9], in test [11], in test [12] and in test [13] was over 100 µM each time. Besides, the TGI in [14], in test [15], in test [18] and in test [19] was over 100 µM in each case.
For `Cc1oc2nc(N(C)C)nc(NN)c2c1C`, the TGI in [1], in test [3], in [4], in test [5], in test [20] and in test [6] was over 100 µM in each case. Also, the TGI in [7], in test [8], in test [10], in [11], in test [12] and in test [13] was over 100 µM throughout. Moreover, the TGI in test [14], in test [15], in [16], in test [17], in test [18] and in [19] was over 100 µM throughout.
On to `O=C(O[C@H]1[C@@H]2C=CO[C@@H](OC3OC(CO)C(O)C(O)C3O)[C@@H]2[C@@]2(CO)O[C@@H]12)c1ccc(O)c(O)c1` (stereo not given in full), for which the TGI in test [1], in test [2], in [4], in [5], in [6] and in [10] was over 100 µM each time. Moreover, the TGI in test [11], in test [12], in [13], in test [14], in test [15] and in test [16] was over 100 µM in each case. The TGI in test [17], in test [18] and in test [19] was over 100 µM in each case.
For `CSc1nc(-c2ccccc2)nc(C(C#N)C#N)n1`, the TGI in test [1], in [2], in test [3], in test [4], in test [5] and in [6] was over 100 µM throughout. The TGI in [7], in test [8], in test [9], in [10], in [11] and in test [12] was over 100 µM in each case. For the same compound, the TGI in test [13], in test [14], in [15], in test [16], in [17] and in test [19] was over 100 µM each time.
In the case of `COc1ccc(N/N=C/C2=CC(C)(C)C(C#N)(C#N)C(O)=C2C#N)cc1`, the TGI in [1], in [2], in test [3], in test [4], in test [5] and in [6] was over 100 µM in each case. The TGI in [7], in test [8], in test [9], in test [10], in test [11] and in test [12] was over 100 µM in each case. The TGI in [13], in test [14], in test [15], in test [16], in test [17] and in [18] was over 100 µM each time. In test [19], this compound registered a TGI of over 100 µM.
As for `CSc1nc(NC2OCC(OC(C)=O)C(OC(C)=O)C2OC(C)=O)c2c(n1)OCC2=O` (stereo not given), the TGI in test [1], in test [2], in test [4], in [5], in [6] and in [10] was over 100 µM in each case. Besides, the TGI in [11], in test [12], in test [13], in test [14], in [15] and in test [16] was over 100 µM throughout. For the same compound, the TGI in [17], in [18] and in test [19] was over 100 µM each time.
With `[C-]#[N+]C(=C\c1ccc(O)cc1)/C(=C/c1ccc(O)cc1)[N+]#[C-]`, the TGI was over 100 µM in test [1]; 4.39 µM in test [2]; 6.71 µM in test [3]; over 100 µM in test [5]; over 23.1 µM in [20]; over 100 µM in [6]. The TGI in test [7] was 7.23 µM; in test [9] it was 3.35 µM; in test [10], over 73.8 µM; in test [11], 4.46 µM; in [12], over 22.4 µM; in test [13], 6.55 µM. For the same compound, the TGI was over 20.5 µM in [15]; over 100 µM in test [16]; 5.36 µM in [17]; over 100 µM in [18]; over 31.8 µM in [19].
Regarding `Cc1nc(C)c(N2CCN(S(N)(=O)=O)CC2)c(=O)[nH]1`, the TGI in [1], in test [2], in test [3], in [4], in test [5] and in test [20] was over 100 µM throughout. Moreover, the TGI in test [6], in test [7], in test [8], in test [10], in test [11] and in [12] was over 100 µM throughout. Moreover, the TGI in test [13], in [14], in test [15], in [16], in [17] and in [18] was over 100 µM throughout.
Regarding `COc1ccc2c(=O)c3c([nH]c2c1)OCC3=O`, the TGI in test [1], in test [3], in [4], in test [5], in test [20] and in test [7] was over 100 µM throughout. The TGI in test [8], in test [10], in test [11], in test [12], in [13] and in [14] was over 100 µM throughout. Besides, the TGI in [15], in test [16], in test [17] and in test [18] was over 100 µM throughout.
